One block for each compound: values may come before it.
Assays:
[1] = cognitive function evaluated by an 8 arm maze; assay type: in vivo, Sabra mice; conditions: for effect on cognitive function (8 arm maze; comparison study): 1 mg/kg, second week of treatment (FIG. 12, Example 3)
Procedure: Mice were subjected to the treatment regimen outlined in Example 1, and during the second week of treatment their cognitive function was evaluated by an 8 arm maze on the second week of the experiment 15 minutes after injection. Two hours before the test, the mice were on a water deprivation schedule. At the end of each arm there was a drop of water as a reward. Each mouse was evaluated for its performance in the maze. The mice were observed until they made entries to all eight arms or until they completed 24 entries (whichever came first). The results, depicted in FIG. 3, were calculated as AUC (area under the curve) as follows: day2+day3+day4+day5−4(day1).
(§1) This study compared the effects of Compound X and Rimonabant. Female Sabra mice (32 g average weight) were divided randomly to 3 experimental groups: (a) control; (b) Compound X; and (3) Rimonabant, 10 mice in each group. Food consumption and weight were evaluated during the experiment. During the second week, mice were evaluated for cognitive function during 5 days using the eight arm maze. 15 min before evaluation mice were injected i.p. with either saline or 1 mg/kg Compound X or Rimonabant (days 8-12).
Mice were subjected to treatment with Compound X (1 mg/kg) or Rimonabant (1 mg/kg), and during the second week of treatment their cognitive function was evaluated by an 8 arm maze as described above in Example 2.

[2] = system: 2-AG levels in the hypothalamus; experiment: 2-AG levels in the hypothalamus (TLC followed by GC-MS); assay type: in vivo, mice; conditions: treated group vs. control, 1 mg/kg i.p., p<0.05 (FIG. 5)
Procedure: (§2) Mice were decapitated and their brains rapidly removed, and the hypothalamus and hippocampus were dissected. 2-AG levels in the hypothalamus were evaluated using TLC followed by GC-MS analysis.

[3] = body weight of mice during treatment; assay type: in vivo, Sabra mice; conditions: for effect on weight vs control (comparison study): 1 mg/kg i.p. days 8-12, female Sabra mice (FIG. 8, Example 3)
Procedure: (§3) Young female Sabra mice were assigned at random to different groups (untreated controls or treated with 1 mg/kg Compound X Intra Peritoneally) of 10 mice per cage. The weights of the animals were similar at the beginning of the experiment. All cages contained wood-chip bedding and were placed in a temperature-controlled room at 22° C., on a 12-h light/dark cycle (lights on at 07.00 h). The mice had free access to water 24 h a day. The mice were fed ad-libitum, body weight was measured twice a week during the experiment and food consumption was calculated.
Compound X may also be given orally. Compound X (gavage) or saline (control) were administered to Sabra mice by oral gavage.
as §1

[4] = total food consumption in mice; assay type: in vivo, Sabra mice; conditions: 1 mg/kg i.p.; for effect on total food consumption in the second week (comparison study): second week during administration, vs control (FIG. 9B, Example 3)
Procedure: as §3
Total food consumption was evaluated in the first week before treatment and at the second week during the treatment (FIGS. 2A and 2B).
as §1
Total food consumption was evaluated in the first week before treatment and at the second week during the treatment (FIGS. 9A and 9B, respectively).

[5] = neurological score by the NSS method; assay type: in vivo, Sabra mice; conditions: 1 mg/kg i.p., day 10 (FIG. 11, Example 3)
Procedure: as §1
Neurological score was evaluated by the NSS method Neurological function was assessed by a 10 point scale based on reflexes and task performance 37: Exit from a circle 1 meter in diameter in less than 1 minute, seeking, walking a straight line, startle reflex, grasping reflex, righting reflex, placing reflex, corneal reflex, maintaining balance on a beam 3, 2 and 1 cm in width, climbing onto a square and a round pole. For each task failed or abnormal reflex reaction a score of 1 was assigned. Thus, a higher score indicates poorer neurological function on day 10.

[6] = system: Serotonin (5-HT) levels in the hypothalamus; experiment: serotonin (5-HT) levels in the hypothalamus (HPLC-ECD); assay type: in vivo, mice; conditions: treated group vs. control, 1 mg/kg i.p., p<0.05 (FIG. 6)
Procedure: as §2
(§4) Serotonin (5-HT) and norepinephrine (NE) were valuated in the hypothalamus (serotonin and norepinephrine) and hippocampus (norepinephrine), using HPLC-ECD.

[7] = system: norepinephrine (NE) levels; experiment: norepinephrine (NE) levels in hippocampus and hypothalamus (HPLC-ECD); assay type: in vivo, mice; conditions: 1 mg/kg i.p.
Procedure: as §2, §4

ALT levels = ALT levels in mice; assay type: in vivo, Sabra mice; conditions: 1 mg/kg i.p., mice sacrificed 71 days after treatment (FIG. 13, Example 3)
Procedure: as §1
Mice were sacrificed 71 days after treatment, and ALT levels were measured.

[8] = locomotor activity in an open field (activity index); assay type: in vivo, Sabra mice; conditions: 1 mg/kg i.p.; for effect on activity (mean number of crossings per minute; comparison study): open field (FIG. 10, Example 3)
Procedure: Activity of the mice was assessed in an open field (20×30 cm) divided into 12 squares of equal size. Two mice were observed simultaneously for 5 minutes. The activity test was performed on day 11 of the experiment. Locomotor activity was recorded by counting the number of crossings by the mice at one minute intervals. The results, depicted in FIG. 4, are presented as the mean number of crossings per minute.
Activity of the mice was assessed in an open field (20×30 cm) divided into 12 squares of equal size, as detailed in Example 2. The results, depicted in FIG. 10, are presented as the mean number of crossings per minute.

PPAR-α = target: T1, PPAR-α (Homo sapiens, UniProt Q07869); conditions: reported by Giuseppe et al. 2006; read-out: EC50 for stimulating transcriptional activity of PPAR-α; cited from earlier work
T1 sequence (Q07869 1-468): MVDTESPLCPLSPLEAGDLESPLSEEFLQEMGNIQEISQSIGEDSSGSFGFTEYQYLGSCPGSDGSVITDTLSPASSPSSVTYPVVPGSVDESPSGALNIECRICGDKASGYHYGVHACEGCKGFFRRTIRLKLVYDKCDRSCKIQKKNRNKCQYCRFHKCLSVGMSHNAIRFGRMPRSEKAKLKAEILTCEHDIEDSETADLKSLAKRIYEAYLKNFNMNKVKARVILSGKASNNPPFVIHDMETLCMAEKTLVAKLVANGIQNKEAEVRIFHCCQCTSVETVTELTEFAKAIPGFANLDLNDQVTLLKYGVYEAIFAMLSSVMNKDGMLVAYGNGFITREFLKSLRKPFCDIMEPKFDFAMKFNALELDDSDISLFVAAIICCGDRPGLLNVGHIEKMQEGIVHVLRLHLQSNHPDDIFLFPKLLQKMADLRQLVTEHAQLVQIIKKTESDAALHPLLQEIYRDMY

effect on neurological score (NSS, 10 point scale; higher score = poorer function) [5]: did not change the neurological score
Structure (SMILES): CCCCCCCC/C=C\CCCCCCCC(=O)N[C@H](CO)C(C)C [Compound X, ((Z-Octadec)-9-enoic acid 1-hydroxymethyl-2-methyl-propyl)-amide]
improvement in cognitive function (8 arm maze) ([1]; 1 mg/kg i.p. (Examples 1-2 conclusion)): 400%
effect on cognitive function (8 arm maze, AUC) ([1]; 1 mg/kg i.p., second week, 15 minutes after injection (FIG. 3, Example 2)): improved significantly
effect on cognitive function (8 arm maze; comparison study) [1]: improved significantly
effect on 2-AG levels in the hypothalamus [2]: significant decrease
duration of the decrease in weight after administration ([3]; 1 mg/kg Intra Peritoneally, female Sabra mice (Example 1)): about 15 days
effect on weight vs control (comparison study) [3]: significant decrease in weight
continuation of the weight effect after re-administration on day 43 ([3]; administered again on day 43, female Sabra mice (Example 3)): 28 days
continuation of the weight effect without further administration ([3]; after 1 mg/kg i.p. days 8-12, female Sabra mice (Example 3)): 31 days
effect on body weight, oral gavage ([3]; oral gavage vs saline control, Sabra mice (FIG. 1B)): significantly decreasing the weight
decrease in food consumption ([4]; p<0.05 (Examples 1-2 conclusion)): 7%
effect on total food consumption in the second week (comparison study) [4]: decreased food consumption significantly
effect on total food consumption in the second week ([4]; second week during treatment, P<0.05 (FIG. 2B, Example 1)): significantly decreased food consumption
effect on serotonin levels in the hypothalamus [6]: increased significantly
effect on NE levels in the hippocampus ([7]; p<0.05 (FIG. 7A)): significantly increased
effect on NE levels in the hypothalamus ([7]; p<0.05 (FIG. 7B)): significantly increased
effect on ALT levels (ALT levels): slightly increased ALT levels
effect on activity (mean number of crossings per minute) ([8]; day 11, open field, p<0.001 (FIG. 4, Example 2)): significant increase in the activity
effect on activity (mean number of crossings per minute; comparison study) [8]: significant increase in the activity
increased activity ([8]; p<0.001 (Examples 1-2 conclusion)): 36%

Structure (SMILES): CCCCCCCC/C=C\CCCCCCCC(=O)N[C@H](C)CO [KDS-5104, (Z)—(R)-9-octadecenamide, N-2(hydroxyethyl,1-methyl)]
EC50 (PPAR-α): 100 nM

effect on neurological score (NSS, 10 point scale; higher score = poorer function) [5]: tendency to increase it
Structure (SMILES): Cc1c(C(=O)NN2CCCCC2)nn(-c2ccc(Cl)cc2Cl)c1-c1ccc(Cl)cc1 [Rimonabant, reference compound]
effect on cognitive function (8 arm maze; comparison study) [1]: did not significantly affect cognitive function
effect on weight vs control (comparison study) [3]: no significant difference in weight loss
effect on total food consumption in the second week (comparison study) [4]: no significant differences
effect on ALT levels (ALT levels): raised them significantly
effect on activity (mean number of crossings per minute; comparison study) [8]: significantly decreased activity

Reference: US9428448B2, “Compounds and methods of treating obesity” (Yissum Research Development Company of the Hebrew …, priority 2008, dated 2016)
